From ChEMBL document CHEMBL4393668, “Discovery and Characterization of XY101, a Potent, Selective, and Orally Bioavailable RORγ Inverse Agonist for Treatment of Castration-Resistant Prostate Cancer” (J Med Chem, 2019)

Tests used:
[1] = molecular target: T1, Nuclear receptor ROR-gamma (Homo sapiens, UniProt P51449); assay: Inverse agonist activity at Gal4-fused RORgamma LBD (unknown origin) expressed in 293T cells measured after 24 hrs by dual-luciferase reporter gene assay; type: cell-based
T1 sequence (P51449 whole entry): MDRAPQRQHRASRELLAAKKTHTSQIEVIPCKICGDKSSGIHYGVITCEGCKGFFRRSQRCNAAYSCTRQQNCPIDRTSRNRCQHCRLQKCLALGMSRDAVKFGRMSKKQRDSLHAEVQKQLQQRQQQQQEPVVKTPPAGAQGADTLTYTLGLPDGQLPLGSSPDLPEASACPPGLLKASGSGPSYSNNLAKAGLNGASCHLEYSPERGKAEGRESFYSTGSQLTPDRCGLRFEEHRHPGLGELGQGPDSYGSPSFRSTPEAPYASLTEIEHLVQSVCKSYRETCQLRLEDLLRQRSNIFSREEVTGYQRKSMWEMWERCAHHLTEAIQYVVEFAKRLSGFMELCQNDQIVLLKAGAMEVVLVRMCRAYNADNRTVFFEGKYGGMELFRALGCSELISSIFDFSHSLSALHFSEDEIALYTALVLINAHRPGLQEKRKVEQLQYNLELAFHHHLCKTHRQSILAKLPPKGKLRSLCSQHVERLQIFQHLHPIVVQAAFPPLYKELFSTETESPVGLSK

[2] = molecular target: T2, Nuclear receptor ROR-gamma (Homo sapiens) (UniProt P51449)
T2 sequence (whole entry): T1 sequence (P51449 whole entry)

[3] = molecular target: T1, Nuclear receptor ROR-gamma; assay: Inverse agonist activity at human N-terminal His6-tagged RORgamma (262 to 507 residues) expressed in Escherichia coli BL21 (DE3) assessed as inhibition of biotinylated co-activator SRC1-4 peptide recruitment by alphascreen assay
[4] = molecular target: T3, Nuclear receptor ROR-alpha (Homo sapiens, UniProt P35398)
T3 sequence (P35398 whole entry): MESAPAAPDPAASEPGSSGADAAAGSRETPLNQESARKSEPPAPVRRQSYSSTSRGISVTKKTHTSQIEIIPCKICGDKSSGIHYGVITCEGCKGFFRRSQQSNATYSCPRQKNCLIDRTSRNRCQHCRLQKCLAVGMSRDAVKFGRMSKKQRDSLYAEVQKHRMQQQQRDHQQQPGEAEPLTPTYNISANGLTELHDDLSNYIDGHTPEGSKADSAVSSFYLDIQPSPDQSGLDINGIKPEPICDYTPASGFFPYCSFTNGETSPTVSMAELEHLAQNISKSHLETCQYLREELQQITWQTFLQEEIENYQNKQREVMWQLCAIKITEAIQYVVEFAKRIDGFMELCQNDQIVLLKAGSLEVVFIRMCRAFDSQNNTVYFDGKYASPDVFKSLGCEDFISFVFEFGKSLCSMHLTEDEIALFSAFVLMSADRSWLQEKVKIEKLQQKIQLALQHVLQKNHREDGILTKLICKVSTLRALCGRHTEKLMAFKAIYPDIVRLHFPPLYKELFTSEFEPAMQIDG

[5] = molecular target: T4, Nuclear receptor ROR-beta (Homo sapiens, UniProt Q92753)
T4 sequence (Q92753 whole entry): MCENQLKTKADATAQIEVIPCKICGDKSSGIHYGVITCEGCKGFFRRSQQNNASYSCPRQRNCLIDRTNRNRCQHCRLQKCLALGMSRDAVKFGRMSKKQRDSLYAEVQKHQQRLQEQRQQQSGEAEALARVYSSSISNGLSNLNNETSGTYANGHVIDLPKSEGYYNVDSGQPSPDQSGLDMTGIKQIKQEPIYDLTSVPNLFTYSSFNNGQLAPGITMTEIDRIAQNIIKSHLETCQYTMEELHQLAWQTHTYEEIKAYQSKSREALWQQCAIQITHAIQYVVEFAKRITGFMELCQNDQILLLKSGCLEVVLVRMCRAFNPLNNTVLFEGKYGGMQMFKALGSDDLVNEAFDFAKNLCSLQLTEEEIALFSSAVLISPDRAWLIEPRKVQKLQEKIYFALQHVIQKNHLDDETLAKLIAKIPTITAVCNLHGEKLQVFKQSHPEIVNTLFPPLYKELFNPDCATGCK

[6] = molecular target: T5, Oxysterols receptor LXR-alpha (Homo sapiens, UniProt Q13133)
T5 sequence (Q13133 whole entry): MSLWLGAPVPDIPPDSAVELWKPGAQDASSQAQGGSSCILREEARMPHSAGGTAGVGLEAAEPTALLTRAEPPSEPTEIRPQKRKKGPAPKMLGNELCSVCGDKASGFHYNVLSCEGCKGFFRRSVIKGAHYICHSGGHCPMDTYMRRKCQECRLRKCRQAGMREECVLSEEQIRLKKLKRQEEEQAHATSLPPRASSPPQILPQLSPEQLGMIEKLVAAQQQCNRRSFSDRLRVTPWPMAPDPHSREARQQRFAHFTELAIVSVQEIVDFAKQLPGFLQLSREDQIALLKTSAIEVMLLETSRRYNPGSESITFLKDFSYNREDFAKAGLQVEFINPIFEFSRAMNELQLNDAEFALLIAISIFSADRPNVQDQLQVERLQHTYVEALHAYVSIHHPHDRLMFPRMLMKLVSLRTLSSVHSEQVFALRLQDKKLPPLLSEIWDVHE

Bile acid receptor = molecular target: T6, Bile acid receptor (Homo sapiens, UniProt Q96RI1)
T6 sequence (Q96RI1 whole entry): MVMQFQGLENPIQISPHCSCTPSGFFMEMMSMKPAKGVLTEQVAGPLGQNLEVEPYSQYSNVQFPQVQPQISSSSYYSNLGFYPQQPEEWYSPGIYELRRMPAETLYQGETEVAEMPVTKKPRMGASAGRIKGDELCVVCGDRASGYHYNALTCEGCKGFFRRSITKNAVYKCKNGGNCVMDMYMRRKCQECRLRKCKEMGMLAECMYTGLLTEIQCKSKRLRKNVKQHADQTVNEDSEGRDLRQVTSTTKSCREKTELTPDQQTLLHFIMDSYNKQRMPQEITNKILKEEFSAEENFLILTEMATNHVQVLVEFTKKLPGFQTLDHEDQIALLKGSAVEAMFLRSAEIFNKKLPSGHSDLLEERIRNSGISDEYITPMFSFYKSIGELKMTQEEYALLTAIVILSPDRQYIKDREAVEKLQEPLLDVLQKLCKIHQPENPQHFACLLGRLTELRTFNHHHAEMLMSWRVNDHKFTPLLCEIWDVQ

Compound	IC50 [1] [nM]	ΔTm [2] [°C]	also measured
O=C(CCc1ccccc1)Nc1ccc(-c2ccc(C(O)(C(F)(F)F)C(F)(F)F)cc2F)cc1	1980	5.2	
CCCCCC(=O)Nc1ccc(-c2ccc(C(O)(C(F)(F)F)C(F)(F)F)cc2F)cc1	1830	5.9	
COC(=O)c1ccccc1CS(=O)(=O)Nc1ccc(-c2ccc(C(O)(C(F)(F)F)C(F)(F)F)cc2F)cc1	2960	2	
O=[N+]([O-])c1ccccc1CS(=O)(=O)Nc1ccc(-c2ccc(C(O)(C(F)(F)F)C(F)(F)F)cc2F)cc1	7660	1	
COC(=O)c1cccc(CS(=O)(=O)Nc2ccc(-c3ccc(C(O)(C(F)(F)F)C(F)(F)F)cc3F)cc2)c1	4240	4	
COC(=O)CCC(=O)Nc1ccc(-c2ccc(C(O)(C(F)(F)F)C(F)(F)F)cc2F)cc1	460	5.2	
N#Cc1ccc(CS(=O)(=O)Nc2ccc(-c3ccc(C(O)(C(F)(F)F)C(F)(F)F)cc3F)cc2)cc1	7550	0	
O=C(Cc1ccc([N+](=O)[O-])cc1)Nc1ccc(-c2ccc(C(O)(C(F)(F)F)C(F)(F)F)cc2F)cc1		6	
COC(=O)c1ccc(CS(=O)(=O)Nc2ccc(-c3ccc(C(O)(C(F)(F)F)C(F)(F)F)cc3F)cc2)cc1	90	8	IC50 [3]: 4830 nM; IC50 [4]: Not Active; IC50 [5]: Not Active; IC50 [6]: Not Active; IC50 (Bile acid receptor): Not Active
COC(=O)CCCC(=O)Nc1ccc(-c2ccc(C(O)(C(F)(F)F)C(F)(F)F)cc2F)cc1	930	5.4	
Nc1ccc(CC(=O)Nc2ccc(-c3ccc(C(O)(C(F)(F)F)C(F)(F)F)cc3F)cc2)cc1		1.5	
O=[N+]([O-])c1cccc(CS(=O)(=O)Nc2ccc(-c3ccc(C(O)(C(F)(F)F)C(F)(F)F)cc3F)cc2)c1	1490	3.5	
